Counter-ions that a name gives are not always drawn.
Legend:
5-HT1 receptor = test: Affinity to the 5-HT1 receptor (receptor binding, calf hippocampus membrane preparations, 3H-serotonin); details: calf hippocampus membranes, 3H-serotonin radioligand
Protocol: A.) Affinity to the 5-HT1 Receptor […] The values specified are data which were determined from receptor binding studies using calf hippocampus membrane preparations. 3H-serotonin was used for this purpose as radioactively labelled ligand.

[1] = system: contraction, caused by serotonin, of the arteria basilaris; test: Serotonin-agonistic/antagonistic action on the contraction, caused by serotonin, of the arteria basilaris of the dog; type: cell-based; details: for Effect antagonistic: suppression of serotonin-induced contraction after pre-treatment; for Effect agonistic: serotonin-mimetic contraction
Description: B.) Investigation of the serotonin-agonistic/antagonistic action
To this purpose, the action on the contraction, caused by serotonin, of the arteria basilaris of the dog is investigated [cf. Peroutka et al., Brain Research 259, 327 (1983)].
In this test model, an agonistic action can be detected by the serotonin-mimetic action (contraction).

CCCN(CCN(CC)CC)C1CCc2cccc(OC)c2C1 (stereo not drawn) [Example 20, 2-[N-(2-Diethylaminoethyl)-N-propyl]amino-8-methoxy-1,2,3,4-tetrahydronaphthalene dihydrochloride]
Ki (5-HT1 receptor): 11 nM

CCCN(CCNC(=O)OCC)C1CCc2cccc(OC)c2C1 (stereo not drawn) [Example 22, 2-[N-(2-Ethoxycarbonylamido-ethyl)-N-propyl]amino-8-methoxy-1,2,3,4-tetrahydronaphthalene hydrochloride]
Effect antagonistic [1]: 0
Ki (5-HT1 receptor): 3 nM

CCCN(CC#N)C1CCc2cccc(OC)c2C1 (stereo not drawn) [Example 26, 2-(N-Cyanomethyl-N-propyl)amino-8-methoxy-1,2,3,4-tetrahydronaphthalene hydrochloride]
Ki (5-HT1 receptor): 2 nM

CCCN(CCCCN1C(=O)c2ccccc2S1(=O)=O)C1CCc2cccc(OC)c2C1.Cl (stereo not drawn) [Example 34, 2-{4-[N-(8-Methoxy-1,2,3,4-tetrahydro-2-naphthyl)-N-propyl-amino]butyl}-1,2-benzisothiazol-3(2H)-one 1,1-dioxide hydrochloride]
Effect agonistic [1]: 0
Ki (5-HT1 receptor): 1 nM

CCCN(CCO)C1CCc2cccc(OC)c2C1 (stereo not drawn) [Example 42, 2-[N-(2-Hydroxyethyl)-N-propyl]amino-8-methoxy-1,2,3,4-tetrahydronaphthalene]
Ki (5-HT1 receptor): 4 nM

CCCN(CCNS(=O)(=O)c1ccc(C)cc1)C1CCc2cccc(OC)c2C1 (stereo not drawn) [Example 45, 8-Methoxy-2-{N-[2-(4-toluene-sulphonamido)ethyl]-N-propyl}amino-1,2,3,4-tetrahydronaphthalene hydrochloride]
Effect agonistic [1]: 0
Ki (5-HT1 receptor): 1 nM

CCCN(CCN1CCCCS1(=O)=O)C1CCc2cccc(OC)c2C1 (stereo not drawn) [Example 58, 2-[2-N-Propyl-N-(8-methoxy-1,2,3,4-tetrahydro-2-naphthyl)-amino]ethyl-perhydro-1,2-thiazine 1,1-dioxide hydrochloride]
Ki (5-HT1 receptor): 4 nM

CCCN(CCCNC(=O)c1cccnc1)C1CCc2cccc(OC)c2C1 (stereo not drawn) [Example 62, dihydrochloride]
Ki (5-HT1 receptor): 4 nM

CCCN(CCC)C1CCc2cccc(O)c2C1 (stereo not drawn) [R^1 = H, R^2 = nC3 H7, R^3 = nC3 H7, reference compound]
Effect antagonistic [1]: 0

— patent US5298513A, “Substituted basic 2-aminotetralin in pharmaceuticals” (Bayer Aktiengesellschaft, priority 1986, dated 1994)
